According to ChEMBL document CHEMBL1201862, “PubChem BioAssay data set” (2004):
The source made the active and inactive calls.

Columns and labels:
[1] = target: T1, High affinity choline transporter 1 (Homo sapiens, UniProt Q9GZV3); test: CHT inhibitors, dose response, cell-based, 5-point CRC, membrane potential dye (AID 504840); format: functional
T1 sequence (Q9GZV3 whole entry): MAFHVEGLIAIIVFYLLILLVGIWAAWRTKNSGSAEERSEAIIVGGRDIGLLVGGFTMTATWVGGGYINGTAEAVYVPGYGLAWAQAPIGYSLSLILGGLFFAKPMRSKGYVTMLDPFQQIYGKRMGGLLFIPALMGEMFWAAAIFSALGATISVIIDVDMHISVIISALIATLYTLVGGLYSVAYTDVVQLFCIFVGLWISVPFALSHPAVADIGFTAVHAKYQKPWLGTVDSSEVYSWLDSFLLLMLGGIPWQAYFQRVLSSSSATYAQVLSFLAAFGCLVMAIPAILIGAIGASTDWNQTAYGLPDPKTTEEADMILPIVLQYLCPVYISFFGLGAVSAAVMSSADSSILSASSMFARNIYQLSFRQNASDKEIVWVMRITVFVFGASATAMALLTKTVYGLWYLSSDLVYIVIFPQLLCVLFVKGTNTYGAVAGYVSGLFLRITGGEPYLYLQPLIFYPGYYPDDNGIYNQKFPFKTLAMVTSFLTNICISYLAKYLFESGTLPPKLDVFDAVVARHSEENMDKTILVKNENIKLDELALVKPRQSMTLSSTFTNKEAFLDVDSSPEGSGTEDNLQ

[2] = target: T1, High affinity choline transporter 1; test: CHT inhibitors, dose response, cell-based, 10-point CRC, membrane potential dye (AID 588401); format: functional;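 note: membrane potential dye fluorescence of choline-evoked depolarization via CHT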
[3] = target: T2, Replicative DNA helicase DnaB (Mycobacterium tuberculosis, UniProt P9WMR3); test: DnaB intein splicing inhibitors, dose response, biochemical, cell-free fluorescence (AID 449749); format: functional
T2 sequence (P9WMR3 whole entry): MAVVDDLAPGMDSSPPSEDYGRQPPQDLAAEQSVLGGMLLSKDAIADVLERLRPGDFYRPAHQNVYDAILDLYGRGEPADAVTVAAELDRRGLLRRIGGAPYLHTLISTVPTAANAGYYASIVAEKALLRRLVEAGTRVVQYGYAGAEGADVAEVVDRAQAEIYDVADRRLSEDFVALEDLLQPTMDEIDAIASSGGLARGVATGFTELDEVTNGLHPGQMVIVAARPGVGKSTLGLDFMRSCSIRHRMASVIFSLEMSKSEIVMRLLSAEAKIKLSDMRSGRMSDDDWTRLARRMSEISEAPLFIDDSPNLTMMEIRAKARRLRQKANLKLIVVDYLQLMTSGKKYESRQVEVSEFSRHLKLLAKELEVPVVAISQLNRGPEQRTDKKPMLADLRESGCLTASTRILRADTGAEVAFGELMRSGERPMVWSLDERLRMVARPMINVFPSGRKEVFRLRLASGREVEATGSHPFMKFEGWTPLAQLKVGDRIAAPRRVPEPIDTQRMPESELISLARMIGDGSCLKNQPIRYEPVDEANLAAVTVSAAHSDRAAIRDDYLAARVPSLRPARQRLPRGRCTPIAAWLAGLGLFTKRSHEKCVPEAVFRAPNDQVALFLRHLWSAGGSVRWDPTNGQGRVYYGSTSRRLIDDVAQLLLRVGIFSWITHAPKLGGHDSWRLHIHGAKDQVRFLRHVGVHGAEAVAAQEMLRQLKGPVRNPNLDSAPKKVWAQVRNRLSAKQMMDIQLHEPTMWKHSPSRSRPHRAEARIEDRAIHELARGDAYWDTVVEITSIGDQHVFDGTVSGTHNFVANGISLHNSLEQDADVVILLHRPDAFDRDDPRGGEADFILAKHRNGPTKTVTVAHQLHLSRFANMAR

[4] = nonselective inhibitors of cellular cAMP signaling, dose response, counter-screen for MC4R biased antagonist project, cell-based, TR-FRET cAMP detection (AID 602305); format: functional;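 note: U2OS cells stimulated with forskolin near its EC80 as the cAMP inducer; potency is for inhibition of forskolin-stimulated cAMP signaling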
Protein RecA = target: T3, Protein RecA (Mycobacterium tuberculosis, UniProt P9WHJ3); test: Fluorescence Cell-Free Homogeneous Dose Retest to Identify Inhibitors of RecA-Intein Splicing Activity. [Related pubchem assays (depositor defined):AID2097, AID2223, AID489010, AID492950]; format: functional
T3 sequence (P9WHJ3 whole entry): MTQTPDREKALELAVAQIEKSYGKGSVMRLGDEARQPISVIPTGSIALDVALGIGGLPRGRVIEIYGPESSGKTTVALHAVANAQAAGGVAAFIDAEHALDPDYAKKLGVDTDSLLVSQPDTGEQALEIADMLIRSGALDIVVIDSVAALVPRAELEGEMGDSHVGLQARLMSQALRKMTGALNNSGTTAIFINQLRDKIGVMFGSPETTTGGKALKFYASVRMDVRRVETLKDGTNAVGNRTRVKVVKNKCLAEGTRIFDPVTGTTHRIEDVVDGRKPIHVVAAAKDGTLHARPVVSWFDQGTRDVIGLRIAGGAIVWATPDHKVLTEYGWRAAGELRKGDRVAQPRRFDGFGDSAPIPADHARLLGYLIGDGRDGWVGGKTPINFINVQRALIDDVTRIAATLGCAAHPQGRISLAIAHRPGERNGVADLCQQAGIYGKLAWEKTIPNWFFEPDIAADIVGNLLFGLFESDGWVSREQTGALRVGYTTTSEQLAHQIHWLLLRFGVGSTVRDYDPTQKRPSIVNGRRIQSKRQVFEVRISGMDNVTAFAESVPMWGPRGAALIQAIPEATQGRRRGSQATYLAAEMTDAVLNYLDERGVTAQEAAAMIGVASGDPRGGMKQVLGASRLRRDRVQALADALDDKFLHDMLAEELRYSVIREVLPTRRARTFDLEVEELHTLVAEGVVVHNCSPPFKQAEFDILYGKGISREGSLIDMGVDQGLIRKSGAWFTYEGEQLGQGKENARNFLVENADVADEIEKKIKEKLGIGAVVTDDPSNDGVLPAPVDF

Melanocortin receptor 4 = Melanocortin receptor 4 (Homo sapiens, UniProt P32245); test: MC4R antagonist potency on cAMP, dose response, cell-based, TR-FRET, biased antagonists (AID 602298); format: functional;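 note: antagonist potency against agonist-stimulated cAMP production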
[5] = target: T4, Heat shock factor protein 1 (Mus musculus, UniProt P38532); test: HSF1 potentiators in luciferase reporter cells, confirmation, cell-based, NIH3T3, luminescence, dose retest (AID 435004); format: functional;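 note: stress induced by proteasome inhibitor MG132 added 30 min after compound; luciferase reporter driven by HSF1 response element in NIH3T3 cells; actives raise luminescence as potentiators of the MG132 stress response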
T4 sequence (P38532 whole entry): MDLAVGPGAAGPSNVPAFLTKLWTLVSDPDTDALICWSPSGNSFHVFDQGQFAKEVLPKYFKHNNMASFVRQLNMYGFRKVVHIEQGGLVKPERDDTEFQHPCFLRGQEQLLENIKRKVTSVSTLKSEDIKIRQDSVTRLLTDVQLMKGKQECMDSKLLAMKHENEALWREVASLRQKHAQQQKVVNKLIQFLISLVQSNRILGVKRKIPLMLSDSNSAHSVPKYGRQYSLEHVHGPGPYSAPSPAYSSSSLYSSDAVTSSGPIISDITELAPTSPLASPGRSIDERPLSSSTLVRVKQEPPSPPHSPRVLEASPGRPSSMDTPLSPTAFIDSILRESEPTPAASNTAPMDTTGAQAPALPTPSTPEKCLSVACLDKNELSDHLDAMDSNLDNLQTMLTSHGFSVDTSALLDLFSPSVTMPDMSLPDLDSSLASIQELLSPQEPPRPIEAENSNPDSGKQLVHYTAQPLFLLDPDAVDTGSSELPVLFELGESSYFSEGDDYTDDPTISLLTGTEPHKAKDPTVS

[6] = Luminescence Cell-Based Dose Retest to Confirm Inhibitors of Cancer Stem Cells. [Related pubchem assays (depositor defined):AID2717, AID2721]; format: functional; conditions: Homo sapiens
[7] = HepG2 cell cytotoxicity, dose response, cytotoxicity control for Shn3 inhibitor project, CellTiter-Glo, cherry-picked (AID 624134); format: functional, cell-based
[8] = Shn3 3'UTR reporter inhibitors, dose response, cell-based, Clone20 osteoblasts, firefly luciferase, cherry-picked (AID 624132); format: functional;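 note: firefly luciferase luminescence from reporter carrying the Shn3 3'UTR in osteoblasts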
Protein Wnt-3a = Protein Wnt-3a (Mus musculus, UniProt P27467); test: Wnt3a-driven reporter signaling inhibition, dose response, selectivity assay for Gli-SUFU antagonist project, Wnt-LIGHT cells, luminescence (AID 651570); format: functional; conditions: read-out: IC50_Mean;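 note: Wnt-LIGHT reporter cells stimulated with conditioned medium from Wnt3a-producing cells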
[9] = control 3'UTR Renilla luciferase suppression, dose response, counter-screen for Shn3 inhibitor project, cell-based, Clone20-Shn3RL, cherry-picked (AID 624133); format: functional
[10] = cytotoxicity in HPDE-C7 cells, cell-based, fluorescence, HTS (AID 430); format: functional; conditions: Homo sapiens
[11] = cytotoxicity in KRAS-transformed pancreatic duct cells, primary screen, cell-based, fluorescence, HTS (AID 431); format: functional; conditions: Homo sapiens;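 note: cell line used: HPDE-C7K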
[12] = AlphaScreen signal interference compounds, dose response, artefact control for ARNT-TACC3 interaction inhibitor project, biochemical, luminescence, cherry-pick (AID 651705); format: functional;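 note: AlphaScreen bead proximity signal that flags compounds interfering with the detection technology; potency reflects signal decrease which marks the compound as an assay artifact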
[13] = target: T5, Apoptotic protease-activating factor 1 (Homo sapiens, UniProt O14727); test: SAR analysis of small molecule Activators of Apaf-1 in a Fluorescent assay.; format: functional; conditions: read-out: EC50_Mean;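 note: caspase-3 cleavage of fluorogenic Rh110 DEVD substrate downstream of apoptosome activation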
T5 sequence (O14727 whole entry): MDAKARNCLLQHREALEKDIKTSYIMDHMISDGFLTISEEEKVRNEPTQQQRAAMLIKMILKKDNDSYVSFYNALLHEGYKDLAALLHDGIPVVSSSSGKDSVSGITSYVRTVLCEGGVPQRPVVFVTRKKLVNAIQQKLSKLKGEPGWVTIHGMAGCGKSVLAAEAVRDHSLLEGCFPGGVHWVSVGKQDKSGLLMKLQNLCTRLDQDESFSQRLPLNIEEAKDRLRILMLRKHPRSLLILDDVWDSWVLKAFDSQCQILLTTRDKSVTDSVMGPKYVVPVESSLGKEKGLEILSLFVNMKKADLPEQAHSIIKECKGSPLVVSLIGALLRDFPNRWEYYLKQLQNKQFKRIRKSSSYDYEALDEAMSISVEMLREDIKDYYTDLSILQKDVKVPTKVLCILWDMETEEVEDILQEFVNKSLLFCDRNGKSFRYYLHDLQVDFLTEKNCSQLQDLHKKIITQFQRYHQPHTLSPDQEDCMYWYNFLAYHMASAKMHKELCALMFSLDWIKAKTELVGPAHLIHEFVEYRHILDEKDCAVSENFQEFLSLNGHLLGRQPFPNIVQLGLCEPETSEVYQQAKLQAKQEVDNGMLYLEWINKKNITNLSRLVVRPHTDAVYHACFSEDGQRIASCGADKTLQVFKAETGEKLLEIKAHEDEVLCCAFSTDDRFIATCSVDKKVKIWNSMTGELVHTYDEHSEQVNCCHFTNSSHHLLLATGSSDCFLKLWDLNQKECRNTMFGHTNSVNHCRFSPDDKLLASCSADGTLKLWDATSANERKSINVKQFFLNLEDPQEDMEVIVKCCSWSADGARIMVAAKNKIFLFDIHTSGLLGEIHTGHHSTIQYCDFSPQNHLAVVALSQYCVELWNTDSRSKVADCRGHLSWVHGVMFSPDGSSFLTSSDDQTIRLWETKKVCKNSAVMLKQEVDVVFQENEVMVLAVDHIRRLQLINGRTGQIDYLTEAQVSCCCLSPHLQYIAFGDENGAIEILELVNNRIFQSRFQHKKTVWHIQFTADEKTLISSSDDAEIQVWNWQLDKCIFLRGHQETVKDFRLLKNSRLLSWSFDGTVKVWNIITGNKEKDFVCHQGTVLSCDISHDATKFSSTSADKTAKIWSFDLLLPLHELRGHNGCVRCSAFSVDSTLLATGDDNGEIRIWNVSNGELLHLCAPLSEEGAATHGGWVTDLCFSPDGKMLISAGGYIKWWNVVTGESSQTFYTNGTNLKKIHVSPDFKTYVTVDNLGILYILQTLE

Sequence of Protein Wnt-3a (P27467 whole entry): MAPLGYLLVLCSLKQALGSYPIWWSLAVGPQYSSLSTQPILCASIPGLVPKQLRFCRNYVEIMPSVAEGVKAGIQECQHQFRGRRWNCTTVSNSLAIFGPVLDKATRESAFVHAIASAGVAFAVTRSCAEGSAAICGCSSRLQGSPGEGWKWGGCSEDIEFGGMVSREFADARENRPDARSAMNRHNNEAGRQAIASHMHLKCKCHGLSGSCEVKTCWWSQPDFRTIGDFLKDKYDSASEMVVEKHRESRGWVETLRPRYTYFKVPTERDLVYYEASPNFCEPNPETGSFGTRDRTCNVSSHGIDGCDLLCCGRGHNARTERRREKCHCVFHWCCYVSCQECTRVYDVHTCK
Sequence of Melanocortin receptor 4 (P32245 whole entry): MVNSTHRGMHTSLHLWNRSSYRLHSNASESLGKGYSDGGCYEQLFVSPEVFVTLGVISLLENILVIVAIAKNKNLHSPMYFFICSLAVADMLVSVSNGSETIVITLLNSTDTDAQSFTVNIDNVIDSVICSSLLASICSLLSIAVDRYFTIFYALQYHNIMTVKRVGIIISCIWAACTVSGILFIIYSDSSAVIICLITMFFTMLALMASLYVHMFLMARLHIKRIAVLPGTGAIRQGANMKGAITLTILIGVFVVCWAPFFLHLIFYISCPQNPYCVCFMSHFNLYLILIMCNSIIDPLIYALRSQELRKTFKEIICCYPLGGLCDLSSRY

**Q.** For `CC(C)(C)NCC(O)c1cc(O)cc(O)c1` (stereo not drawn), which IC50 [1] is on record?
**A.** Its IC50 is 0.0841 µM (active).

**Q.** And the IC50 [2]?
**A.** Its IC50 is 0.0142 µM (active).

**Q.** Which IC50 [1] does the source give for `O=[N+]([O-])c1ccc(CSc2nnc3ccccn23)cc1` here?
**A.** Its IC50 is 4.29 µM (active).

**Q.** And the IC50 [2]?
**A.** Its IC50 is 0.8 µM (active).

**Q.** What does the source list for `O=C(C[S+]([O-])c1ccc(C(F)(F)F)cc1[N+](=O)[O-])Oc1ccccc1` (stereo not drawn)?
**A.** AC50 [3]: 10.4 µM (active); IC50 [4]: > 64.6 µM (inactive); IC50 [1]: 12.3 µM (active); EC50 (Protein RecA): 4.59 µM (active); IC50 (Melanocortin receptor 4): 13.5 µM (inactive); EC50 [5]: 22.7 µM (active); AC50 [6]: 3.71 µM (active)

**Q.** What does the source list for `COc1ccc(CNCC(O)COc2cccc3c2OC(C)(C)C3)cc1` (stereo not drawn)?
**A.** AC50 [7]: 49.4 µM (active); AC50 [8]: 1.68 µM (active); IC50 (Protein Wnt-3a): 3.22 µM (active); AC50 [9]: 1.57 µM (active)

**Q.** For `CCN(CC)S(=O)(=O)c1cc(C(=O)Nc2nncs2)c(Cl)cc1Cl`, which IC50 [1] is on record?
**A.** Its IC50 is 7.64 µM (active).

**Q.** What about the EC50 [10] of the same molecule?
**A.** The EC50 was 13.5 µM (active).

**Q.** And the IC50 [2]?
**A.** The IC50 was 6.21 µM (active).

**Q.** What about the EC50 [11] of the same molecule?
**A.** Its EC50 is > 20 µM (not active).

**Q.** With `COc1ccc(CN(C)Cc2nc(Cc3cccc(F)c3)no2)c2cccnc12` as the molecule, how does the IC50 (Protein Wnt-3a) read?
**A.** The IC50 was 2.18 µM (active).

**Q.** With `Nc1nc(O)nc(Nc2ccccc2)c1N=O` as the molecule, how does the AC50 [12] read?
**A.** The AC50 was 111 µM (active).

**Q.** For `COc1ccc(C2=N[C@H](C(=O)O)CO2)cc1C(F)(F)F`, which EC50 [13] is on record?
**A.** Its EC50 is > 100 µM (inactive).

**Q.** For `CC(CC(F)(F)F)C(=O)O` (stereo not drawn), which EC50 [13] is on record?
**A.** The EC50 was > 100 µM (inactive).
